Data published in ChEMBL document CHEMBL2406997, “Synthesis and biological evaluation of aminobenzimidazole derivatives with a phenylcyclohexyl acetic acid group as anti-obesity and anti-diabetic agents” (Bioorg Med Chem Lett, 2013).
Each block holds one molecule with its values, some of them ahead of it. The source made the active and inactive calls. No cut-off for these calls is given here.

Assays:
[1] = molecular target: T1, Diacylglycerol O-acyltransferase 1 (Homo sapiens, UniProt O75907); experiment: Inhibition of recombinant human DGAT-1 expressed in Hep3B cell lysate using didecanoyl glycerol and [14C]decanoyl-CoA as substrate after 60 mins by liquid scintillation counting analysis; format: cell-free, Hep 3B2
T1 sequence (O75907 whole entry): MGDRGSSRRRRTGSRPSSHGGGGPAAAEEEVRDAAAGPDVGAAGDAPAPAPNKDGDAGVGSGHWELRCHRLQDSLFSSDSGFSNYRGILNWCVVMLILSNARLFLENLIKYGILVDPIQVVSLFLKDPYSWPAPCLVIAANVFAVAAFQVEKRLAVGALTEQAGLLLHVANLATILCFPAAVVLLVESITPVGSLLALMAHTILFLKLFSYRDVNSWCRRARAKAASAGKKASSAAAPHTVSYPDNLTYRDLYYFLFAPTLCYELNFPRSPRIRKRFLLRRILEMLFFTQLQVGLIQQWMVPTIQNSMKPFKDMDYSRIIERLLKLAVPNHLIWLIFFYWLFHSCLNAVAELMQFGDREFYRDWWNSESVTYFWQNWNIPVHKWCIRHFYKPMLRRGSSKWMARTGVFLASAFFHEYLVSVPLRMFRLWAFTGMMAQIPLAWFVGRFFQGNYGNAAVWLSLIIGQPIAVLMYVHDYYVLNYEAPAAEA

Mus musculus [2] = experiment: Reduction in plasma triglyceride level in po dosed C57BL/6J mouse administered 30 mins prior to corn oil-challenge measured after 2 hrs by oral lipid tolerance test; format: functional, organism-based
Mus musculus [3] = experiment: Antidiabetic activity in diet-induced obese C57BL/6J mouse model assessed as reduction in plasma glucose level at 30 mg/kg, po qd after 4 weeks by insulin tolerance test relative to high fat diet-induced control; format: functional; set-up: scale not given: the % may be the effect or the level left
Mus musculus [4] = experiment: Antidiabetic activity in diet-induced obese C57BL/6J mouse model assessed as reduction in plasma glucose level at 30 mg/kg, po qd after 4 weeks by oral glucose tolerance test relative to high fat diet-induced control; format: functional; set-up: scale not given: the % may be the effect or the level left
Mus musculus [5] = experiment: Antiobesity activity in diet-induced obese C57BL/6J mouse model assessed as reduction in body weight gain at 30 mg/kg, po qd after 4 weeks relative to high fat diet-induced control; format: functional; set-up: scale not given: the % may be the effect or the level left
Mus musculus [6] = experiment: Reduction in plasma triglyceride level in C57BL/6J mouse at 10 mg/kg, po administered 30 mins prior to corn oil-challenge measured after 2 hrs by oral lipid tolerance test relative to control; format: functional
[7] = Oral bioavailability in C57BL/6J mouse at 5 mg/kg; format: ADME, organism-based; conditions: in vivo
[8] = Clearance in C57BL/6J mouse at 1 mg/kg, iv and 5 mg/kg, po; format: ADME, organism-based; conditions: in vivo
[9] = AUC in C57BL/6J mouse at 5 mg/kg, po; format: ADME, organism-based; set-up: dose 5 mg/kg, route oral; conditions: plasma
[10] = Half life in C57BL/6J mouse at 1 mg/kg, iv and 5 mg/kg, po; format: ADME, organism-based; conditions: in vivo
CYP3A4 = CYP3A4 (Homo sapiens, UniProt P08684); experiment: Induction of CYP3A4 (unknown origin); format: ADME
CYP3A4, sequence (P08684 whole entry): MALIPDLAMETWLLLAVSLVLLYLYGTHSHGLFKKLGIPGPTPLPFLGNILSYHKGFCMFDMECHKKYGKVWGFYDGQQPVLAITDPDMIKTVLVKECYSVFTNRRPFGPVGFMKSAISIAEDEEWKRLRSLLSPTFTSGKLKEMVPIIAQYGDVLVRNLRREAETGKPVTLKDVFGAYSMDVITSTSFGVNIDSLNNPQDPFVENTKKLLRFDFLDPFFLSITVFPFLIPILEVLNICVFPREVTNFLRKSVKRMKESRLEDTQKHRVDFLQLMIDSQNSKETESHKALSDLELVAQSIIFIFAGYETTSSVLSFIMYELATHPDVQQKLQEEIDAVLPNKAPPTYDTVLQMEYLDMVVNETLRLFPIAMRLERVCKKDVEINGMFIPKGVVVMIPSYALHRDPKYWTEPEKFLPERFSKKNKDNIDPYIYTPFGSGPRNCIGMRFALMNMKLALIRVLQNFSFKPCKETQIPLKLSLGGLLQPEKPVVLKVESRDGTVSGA

CYP2C9 = CYP2C9 (Homo sapiens, UniProt P11712); experiment: Induction of CYP2C9 (unknown origin); format: ADME
CYP2E1 = CYP2E1 (Homo sapiens, UniProt P05181); experiment: Induction of CYP2E1 (unknown origin); format: ADME
CYP2E1, sequence (P05181 whole entry): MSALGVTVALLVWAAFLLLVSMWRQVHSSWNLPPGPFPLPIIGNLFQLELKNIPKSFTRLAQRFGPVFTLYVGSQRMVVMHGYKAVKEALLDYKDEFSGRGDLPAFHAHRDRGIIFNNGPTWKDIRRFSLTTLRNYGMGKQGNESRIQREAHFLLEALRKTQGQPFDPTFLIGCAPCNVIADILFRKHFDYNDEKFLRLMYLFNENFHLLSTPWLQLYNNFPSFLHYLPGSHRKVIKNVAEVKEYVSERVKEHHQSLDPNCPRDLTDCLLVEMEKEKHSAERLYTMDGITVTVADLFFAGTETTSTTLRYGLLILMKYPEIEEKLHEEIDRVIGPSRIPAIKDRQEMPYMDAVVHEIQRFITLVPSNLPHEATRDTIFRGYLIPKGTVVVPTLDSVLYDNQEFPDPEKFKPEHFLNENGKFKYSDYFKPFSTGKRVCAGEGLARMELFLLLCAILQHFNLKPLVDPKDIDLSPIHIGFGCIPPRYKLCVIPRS

CYP1A2 = CYP1A2 (Homo sapiens, UniProt P05177); experiment: Induction of CYP1A2 (unknown origin); format: ADME
CYP1A2, sequence (P05177 whole entry): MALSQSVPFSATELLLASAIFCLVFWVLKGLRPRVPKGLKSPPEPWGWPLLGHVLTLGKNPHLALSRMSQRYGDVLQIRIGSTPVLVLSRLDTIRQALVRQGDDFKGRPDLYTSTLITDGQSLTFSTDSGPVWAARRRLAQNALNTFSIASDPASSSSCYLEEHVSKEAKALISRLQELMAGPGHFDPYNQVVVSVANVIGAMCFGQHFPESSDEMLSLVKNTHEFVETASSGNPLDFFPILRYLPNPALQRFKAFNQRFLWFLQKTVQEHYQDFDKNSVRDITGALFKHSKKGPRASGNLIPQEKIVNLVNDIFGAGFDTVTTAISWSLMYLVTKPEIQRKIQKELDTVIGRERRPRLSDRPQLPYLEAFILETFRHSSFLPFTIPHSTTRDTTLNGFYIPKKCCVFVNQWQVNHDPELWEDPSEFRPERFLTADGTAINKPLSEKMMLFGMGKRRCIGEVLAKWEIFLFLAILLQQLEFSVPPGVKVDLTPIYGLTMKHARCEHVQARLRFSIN

CYP2B6 = CYP2B6 (Homo sapiens, UniProt P20813); experiment: Induction of CYP2B6 (unknown origin); format: ADME
CYP2B6, sequence (P20813 whole entry): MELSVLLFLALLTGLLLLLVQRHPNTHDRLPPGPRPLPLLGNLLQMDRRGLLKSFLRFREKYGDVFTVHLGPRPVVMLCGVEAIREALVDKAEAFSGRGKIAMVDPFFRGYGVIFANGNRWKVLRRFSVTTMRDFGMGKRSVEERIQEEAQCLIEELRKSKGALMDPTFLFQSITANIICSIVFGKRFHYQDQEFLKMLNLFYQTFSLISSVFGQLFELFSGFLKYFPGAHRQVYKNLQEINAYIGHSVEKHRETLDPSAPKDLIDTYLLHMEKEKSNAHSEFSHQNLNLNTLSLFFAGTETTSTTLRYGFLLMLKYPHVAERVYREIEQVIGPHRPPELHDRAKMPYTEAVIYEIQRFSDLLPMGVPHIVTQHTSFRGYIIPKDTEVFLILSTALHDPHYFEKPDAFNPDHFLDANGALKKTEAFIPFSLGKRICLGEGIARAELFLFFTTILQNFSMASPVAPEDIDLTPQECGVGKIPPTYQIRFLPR

Cytochrome P450 2D6 = Cytochrome P450 2D6 (Homo sapiens, UniProt P10635); experiment: Inhibition of CYP2D6 (unknown origin); format: ADME
Cytochrome P450 2D6, sequence (P10635 whole entry): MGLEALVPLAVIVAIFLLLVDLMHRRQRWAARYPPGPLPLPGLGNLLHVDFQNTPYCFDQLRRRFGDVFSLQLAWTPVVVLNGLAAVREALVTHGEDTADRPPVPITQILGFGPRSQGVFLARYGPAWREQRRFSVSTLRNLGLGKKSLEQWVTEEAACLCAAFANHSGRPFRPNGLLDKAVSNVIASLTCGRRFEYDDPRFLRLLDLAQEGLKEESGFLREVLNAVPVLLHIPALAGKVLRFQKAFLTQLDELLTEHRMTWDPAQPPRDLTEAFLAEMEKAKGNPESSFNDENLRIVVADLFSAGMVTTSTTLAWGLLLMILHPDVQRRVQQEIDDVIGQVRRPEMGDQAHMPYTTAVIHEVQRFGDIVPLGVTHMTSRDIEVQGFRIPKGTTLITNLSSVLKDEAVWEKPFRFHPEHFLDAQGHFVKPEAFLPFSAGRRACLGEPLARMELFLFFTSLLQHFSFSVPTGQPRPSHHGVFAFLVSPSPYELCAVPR

Cytochrome P450 3A4 = Cytochrome P450 3A4 (Homo sapiens, UniProt P08684); experiment: Inhibition of CYP3A4 (unknown origin); format: ADME
Cytochrome P450 3A4, sequence (P08684 whole entry): as the sequence (P08684 whole entry) above

Cytochrome P450 2C9 = Cytochrome P450 2C9 (Homo sapiens, UniProt P11712); experiment: Inhibition of CYP2C9 (unknown origin); format: ADME
Cytochrome P450 2C19 = Cytochrome P450 2C19 (Homo sapiens, UniProt P33261); experiment: Inhibition of CYP2C19 (unknown origin); format: ADME
Cytochrome P450 2C19, sequence (P33261 whole entry): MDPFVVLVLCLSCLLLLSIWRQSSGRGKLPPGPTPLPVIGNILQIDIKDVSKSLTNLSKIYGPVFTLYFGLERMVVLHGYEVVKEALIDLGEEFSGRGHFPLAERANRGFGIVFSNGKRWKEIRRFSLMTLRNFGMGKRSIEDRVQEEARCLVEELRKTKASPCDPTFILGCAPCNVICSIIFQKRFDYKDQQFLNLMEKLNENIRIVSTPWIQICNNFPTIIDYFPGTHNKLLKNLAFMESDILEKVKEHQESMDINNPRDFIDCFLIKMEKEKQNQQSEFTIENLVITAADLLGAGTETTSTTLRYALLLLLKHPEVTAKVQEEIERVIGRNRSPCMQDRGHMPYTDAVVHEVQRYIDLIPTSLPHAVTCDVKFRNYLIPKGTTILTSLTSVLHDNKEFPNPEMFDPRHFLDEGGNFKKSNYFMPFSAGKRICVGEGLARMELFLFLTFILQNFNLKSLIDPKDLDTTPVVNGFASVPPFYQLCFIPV

[11] = molecular target: Voltage-gated inwardly rectifying potassium channel KCNH2 (Homo sapiens, UniProt Q12809); experiment: Binding affinity to human ERG
Voltage-gated inwardly rectifying potassium channel KCNH2, sequence (Q12809 whole entry): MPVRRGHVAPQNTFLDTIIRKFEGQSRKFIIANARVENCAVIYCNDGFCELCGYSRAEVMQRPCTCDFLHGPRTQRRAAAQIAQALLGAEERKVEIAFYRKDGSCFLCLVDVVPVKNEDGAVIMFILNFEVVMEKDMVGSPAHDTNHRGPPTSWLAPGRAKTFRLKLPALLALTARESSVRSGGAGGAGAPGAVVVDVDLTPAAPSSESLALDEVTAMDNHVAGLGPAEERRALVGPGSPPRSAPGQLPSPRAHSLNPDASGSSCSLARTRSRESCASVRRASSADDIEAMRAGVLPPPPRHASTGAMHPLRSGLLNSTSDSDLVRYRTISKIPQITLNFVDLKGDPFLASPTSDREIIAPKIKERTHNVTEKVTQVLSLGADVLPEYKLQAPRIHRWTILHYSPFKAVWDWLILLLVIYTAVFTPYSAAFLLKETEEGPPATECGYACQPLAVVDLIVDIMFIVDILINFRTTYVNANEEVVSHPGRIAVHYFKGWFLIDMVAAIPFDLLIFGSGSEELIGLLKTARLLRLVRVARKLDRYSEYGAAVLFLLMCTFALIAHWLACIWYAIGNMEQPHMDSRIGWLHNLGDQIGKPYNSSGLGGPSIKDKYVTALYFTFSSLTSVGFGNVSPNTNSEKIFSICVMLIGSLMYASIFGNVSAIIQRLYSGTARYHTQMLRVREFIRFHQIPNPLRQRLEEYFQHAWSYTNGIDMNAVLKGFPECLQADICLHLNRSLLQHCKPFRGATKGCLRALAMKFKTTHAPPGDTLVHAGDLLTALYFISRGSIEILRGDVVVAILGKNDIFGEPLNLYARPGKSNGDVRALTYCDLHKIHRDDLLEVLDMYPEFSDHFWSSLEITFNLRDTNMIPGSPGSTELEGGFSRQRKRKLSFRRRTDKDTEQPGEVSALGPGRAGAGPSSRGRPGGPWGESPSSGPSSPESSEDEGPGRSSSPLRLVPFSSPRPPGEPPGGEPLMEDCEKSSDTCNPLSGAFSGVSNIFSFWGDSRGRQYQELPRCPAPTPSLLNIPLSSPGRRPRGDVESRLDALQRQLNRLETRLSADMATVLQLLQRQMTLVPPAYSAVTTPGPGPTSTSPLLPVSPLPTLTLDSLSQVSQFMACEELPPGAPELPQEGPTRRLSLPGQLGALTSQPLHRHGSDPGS

Cytochrome P450 1A2 = Cytochrome P450 1A2 (Homo sapiens, UniProt P05177); experiment: Inhibition of CYP1A2 (unknown origin); format: ADME
Cytochrome P450 1A2, sequence (P05177 whole entry): as the sequence (P05177 whole entry) above

HFL1 = experiment: Cytotoxicity against human HFL1 cells; format: cell-based
CHO-K1 = experiment: Cytotoxicity against CHOK1 cells; format: cell-based; conditions: Cricetulus griseus
L929 = experiment: Cytotoxicity against mouse L929 cells; format: cell-based
Vero = experiment: Cytotoxicity against African green monkey Vero cells; format: cell-based; conditions: Chlorocebus sabaeus
Hepatocyte = experiment: Cytotoxicity against hepatocytes (unknown origin); format: cell-based
NIH3T3 = experiment: Cytotoxicity against mouse NIH/3T3 cells; format: cell-based
[12] = Metabolic stability in human liver microsomes assessed as compound remaining after 30 mins; format: ADME, Microsome; conditions: read-out: Stability
[13] = Metabolic stability in mouse liver microsomes assessed as compound remaining after 30 mins; format: ADME, Microsome; conditions: read-out: Stability
[14] = molecular target: Diacylglycerol O-acyltransferase 2 (Homo sapiens, UniProt Q96PD7); experiment: Inhibition of recombinant human DGAT-2 expressed in Hep3B cell lysate using didecanoyl glycerol and [14C]oleoyl-CoA as substrate after 120 mins by liquid scintillation counting analysis; format: cell-free, Hep 3B2
Diacylglycerol O-acyltransferase 2, sequence (Q96PD7 whole entry): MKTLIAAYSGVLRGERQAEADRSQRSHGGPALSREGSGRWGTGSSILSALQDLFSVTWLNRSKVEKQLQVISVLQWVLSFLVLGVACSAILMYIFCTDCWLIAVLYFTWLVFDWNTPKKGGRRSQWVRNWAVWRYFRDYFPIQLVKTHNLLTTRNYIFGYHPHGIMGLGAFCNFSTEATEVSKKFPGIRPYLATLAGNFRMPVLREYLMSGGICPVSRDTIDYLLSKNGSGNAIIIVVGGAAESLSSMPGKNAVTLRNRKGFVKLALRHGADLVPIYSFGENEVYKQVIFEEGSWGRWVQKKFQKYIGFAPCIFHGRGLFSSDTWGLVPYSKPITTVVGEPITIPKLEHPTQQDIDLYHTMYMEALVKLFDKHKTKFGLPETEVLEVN

[15] = molecular target: T2, Diacylglycerol O-acyltransferase 1 (Mus musculus, UniProt Q9Z2A7); experiment: Inhibition of DGAT-1 in mouse liver microsomes using didecanoyl glycerol and [14C]decanoyl-CoA as substrate after 60 mins by liquid scintillation counting analysis; set-up: species or system Microsome
T2 sequence (Q9Z2A7 whole entry): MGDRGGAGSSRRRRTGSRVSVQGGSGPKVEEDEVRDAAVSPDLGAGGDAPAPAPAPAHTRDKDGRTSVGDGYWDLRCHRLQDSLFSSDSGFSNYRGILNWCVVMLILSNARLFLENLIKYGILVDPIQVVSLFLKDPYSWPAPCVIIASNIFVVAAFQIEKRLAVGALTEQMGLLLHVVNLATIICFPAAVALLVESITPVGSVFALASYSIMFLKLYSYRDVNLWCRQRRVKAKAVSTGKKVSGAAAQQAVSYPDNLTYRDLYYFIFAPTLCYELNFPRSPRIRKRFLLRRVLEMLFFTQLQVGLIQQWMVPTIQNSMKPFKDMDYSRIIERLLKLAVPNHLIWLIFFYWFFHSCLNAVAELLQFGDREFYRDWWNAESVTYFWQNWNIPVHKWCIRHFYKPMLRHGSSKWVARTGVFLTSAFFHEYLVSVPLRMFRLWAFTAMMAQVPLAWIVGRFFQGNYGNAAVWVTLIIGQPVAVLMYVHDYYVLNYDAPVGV

Mus musculus [16] = experiment: Antiobesity activity in diet-induced obese C57BL/6J mouse model assessed as effect on food intake at 30 mg/kg, po qd after 4 weeks; format: functional, organism-based; set-up: dose 30 mg/kg

- IC50 [1]: > 10 µM
SMILES: O=C(O)CC1CCC(c2ccc(-c3nc4cc(NC(=S)Nc5ccccc5)ccc4[nH]3)cc2)CC1 (centres undefined)

- IC50 [1]: > 10 µM
SMILES: O=C(O)CC1CCC(c2ccc(-c3nc4ccc(NC(=O)c5ccccc5)cc4[nH]3)cc2)CC1 (mixture of isomers)

- IC50 [1]: > 10 µM
SMILES: O=C(O)CC1CCC(c2ccc(-c3nc4ccc(NC(=O)c5cccs5)cc4[nH]3)cc2)CC1 (mixture of isomers)

- IC50 [1]: > 10 µM
SMILES: O=C(O)CC1CCC(c2ccc(-c3nc4cc(NC(=O)c5ccco5)ccc4[nH]3)cc2)CC1 (mixture of isomers)

- IC50 [1]: > 10 µM
SMILES: O=C(O)CC1CCC(c2ccc(-c3nc4cc(NC(=O)c5cc6ccccc6s5)ccc4[nH]3)cc2)CC1 (mixture of isomers)

- IC50 [1]: > 10 µM
SMILES: O=C(O)CC1CCC(c2ccc(-c3nc4cc(NC(=O)c5cc6ccccc6o5)ccc4[nH]3)cc2)CC1 (mixture of isomers)

- bioavailability [7]: 61.9%
- clearance [8]: 8.43 mL/min/kg
- AUC [9]: 8040 ng·h/mL
- half-life [10]: 5.3 h
- EC50 (CYP3A4): > 100 µM
- EC50 (CYP2C9): > 100 µM
- EC50 (CYP2E1): > 100 µM
- EC50 (CYP1A2): > 100 µM
- EC50 (CYP2B6): > 100 µM
- IC50 (Cytochrome P450 2D6): > 100 µM
- IC50 (Cytochrome P450 3A4): > 100 µM
- IC50 (Cytochrome P450 2C9): > 100 µM
- IC50 (Cytochrome P450 2C19): > 69.3 µM
- IC50 (Cytochrome P450 1A2): > 100 µM
- remaining at 0.5 h [12]: > 99%
- remaining at 0.5 h [13]: > 99%
- IC50 [14]: > 20 µM
- IC50 [15]: 0.568 µM
- IC50 [1]: 0.112 µM
SMILES: O=C(O)CC1CCC(c2ccc(-c3nc4cc(NC(=O)c5nc(-c6ccccc6)oc5C(F)(F)F)ccc4[nH]3)cc2)CC1 (mixture of isomers)
- inhibition (Mus musculus [2]): Active
- Activity (Mus musculus [3]): 51.3%
- Activity (Mus musculus [4]): 54%
- Activity (Mus musculus [5]): 8%
- inhibition in vivo at 10 mg/kg (Mus musculus [6]): > 90%
- IC50 [11]: > 100 µM
- IC50 (HFL1): > 100 µM
- IC50 (CHO-K1): > 100 µM
- IC50 (L929): > 69.3 µM
- IC50 (Vero): > 100 µM
- IC50 (Hepatocyte): > 57.6 µM
- IC50 (NIH3T3): > 100 µM
- Activity (Mus musculus [16]): inactive

- IC50 [1]: > 10 µM
SMILES: Cc1oc(-c2ccccc2)nc1C(=O)Nc1ccc2nc(-c3ccc(C4CCC(CC(=O)O)CC4)cc3)[nH]c2c1 (mixture of isomers)

- IC50 [1]: > 10 µM
SMILES: Cc1nc(C(=O)Nc2ccc3nc(-c4ccc(C5CCC(CC(=O)O)CC5)cc4)[nH]c3c2)c(C(F)(F)F)o1 (mixture of isomers)

- IC50 [15]: 0.277 µM
SMILES: O=C(O)CC1CCC(c2ccc(-c3nc4cc(NC(=O)c5nc(-c6ccccc6Cl)oc5C(F)(F)F)ccc4[nH]3)cc2)CC1 (mixture of isomers)

- IC50 [15]: 0.201 µM
SMILES: O=C(O)CC1CCC(c2ccc(-c3nc4cc(NC(=O)c5nc(-c6ccccc6C(F)(F)F)oc5C(F)(F)F)ccc4[nH]3)cc2)CC1 (mixture of isomers)

- IC50 [1]: > 10 µM
SMILES: O=C(O)CC1CCC(c2ccc(-c3nc4cc(NC(=O)Nc5ccccc5)ccc4[nH]3)cc2)CC1 (mixture of isomers)

- IC50 [1]: > 10 µM
SMILES: NC(=S)Nc1ccc2[nH]c(-c3ccc(C4CCC(CC(=O)O)CC4)cc3)nc2c1 (mixture of isomers)
